Results on 28 compounds are retold here after patent US5276049A, “Cyclic urea derivatives, pharmaceutical compositions containing these compounds and methods of using the same” (Dr. Karl Thomae GmbH, priority 1991, dated 1994).

The structures appear in SMILES notation. Counter-ions that a name gives are not always drawn.

In one test the test system is Human Thrombocytes. Briefly: Fibrinogen Binding to Human Thrombocytes (I125-fibrinogen, gel-filtered platelets). The note with it: inhibition of I125-fibrinogen binding to gel-filtered human platelets, ADP, 20 minutes, ambient temperature; read-out: Fibrinogen Binding test IC50. How it is done:
1. Fibrinogen Binding to Human Thrombocytes Blood obtained by puncture of an antecubital vein was anticoagulated with trisodium citrate (final concentration: 13 mM) and centrifuged for 10 minutes at 170 *g. The supernatant platelet-rich plasma was placed on a Sepharose 2B column (Pharmacia) and eluted with a solution of 90 mM common salt, 14 mM trisodium citrate, 5 mM glucose and 50 mM tris(hydroxymethyl)aminomethane, adjusted to pH 7.4. The gel-filtered platelets (GFP) appearing in front of the plasma proteins were used for the binding tests. 50 μl of a 60 mM calcium chloride solution, 50 μl of a 0.6 mM adenosine diphosphate solution, 100 μl of substance solution or solvent and 50 μl of fibrinogen solution (containing 3 μg I125-fibrinogen) were added to 750 μl of GFP and incubated for 20 minutes at ambient temperature. The non-specific binding was measured in the presence of 3 mg/ml of cold fibrinogen. 900 μl of the incubate were carefully pipetted onto 250 μl of silicon oil (AP 38: AR 20, 1:2 v/v, Wacker Chemie) in Eppendorf vessels and centrifuged for 2 minutes at 10,000 *g. The aqueous supernatant and some of the oil were removed, the tip of the vessel with the platelet pellet was cut off and the quantity of bound fibrinogen was measured in a gamma-counter. The concentration of substance which inhibited fibrinogen binding by 50% was calculated from a series of concentrations and given as the IC50.

In test [1] the test system is thrombocyte aggregation in platelet-rich plasma. The test can be described thus: Antithrombotic effect: collagen-induced thrombocyte aggregation in platelet-rich plasma (Born and Cross). The test is classed as cell-based. The note with it: human platelet-rich plasma, 10 minutes preincubation at 37° C., read-out: Inhibition of platelet aggregation EC50. As to the method:
2. Antithrombotic Effect Method: The thrombocyte aggregation was measured in platelet-rich plasma from healthy test subjects using the Born and Cross method (J. Physiol. 170: 397 (1964)). In order to inhibit coaggulation the blood was mixed with 3.14% sodium citrate in a ratio by volume of 1:10. Collagen-induced aggregation: The decrease in the optical density of the platelet suspension was measured photometrically and recorded after the addition of the aggregation-initiating substance. The speed of aggregation was concluded from the angle of inclination of the density curve. The point on the curve at which there was maximum transmittance was used to calculate the optical density. The quantity of collagen used was as little as possible but sufficient to give an irreversible reaction curve. Standard commercial collagen produced by Hormonchemie of Munich was used. Before the addition of collagen the plasma was incubated with the substance for 10 minutes at 37° C. From the measurements obtained, an EC50 was determined graphically, relating to a 50% change in the optical density in terms of inhibiting aggregation.

As to `N=C(N)c1ccc(N2CCN(CCNCC(=O)O)C2=O)cc1` [1(82), 1-(4-amidino-phenyl)-3-(2-carboxymethylaminoethyl)-imidazolidin-2-one], the IC50 in the test with Human Thrombocytes came out at 17000 nM. Besides, in test [1], the EC50 was found to be 29000 nM.
The corresponding values for `N=C(N)c1ccc(-c2cn(-c3ccc(CCC(=O)O)cc3)c(=O)n2-c2ccccc2)cc1` [1(94), 4-(4-amidino-phenyl)-1-[4-(2-carboxy-ethyl)-phenyl]-3-phenyl-3H-imidazol-2-one hydrochloride] are 310 nM and 400 nM.
In the case of `N=C(N)c1ccc(-c2ccc(-c3cn(CCC(=O)O)c(=O)[nH]3)cc2)cc1` [1(117), 4-(4'-amidino-4-biphenylyl)-1-(2-carboxy-ethyl)-3H-imidazol-2-one hydrochloride], the IC50 in the test with Human Thrombocytes is 230 nM. For the same compound, the EC50 in test [1] amounted to 5400 nM.
In the case of `Cn1c(-c2ccc(-c3ccc(C(=N)N)cc3)cc2)cn(CCC(=O)O)c1=O` [1(118), 4-(4'-amidino-4-biphenylyl)-1-(2-carboxy-ethyl)-3-methyl-3H-imidazol-2-onehydrochloride], the IC50 in the test with Human Thrombocytes was determined as 170 nM. Also, in test [1], the EC50 came to 460 nM.
For `N=C(N)c1ccc(-c2ccc(-c3cn(CCC(=O)O)c(=O)n3-c3ccccc3)cc2)cc1` [1(119), 4-(4'-amidino-4-biphenylyl)-1-(2-Carboxy-ethyl)-3-phenyl-3H-imidazol-2-onehydrochloride] the same measures were 210 nM and 730 nM.
For `CCc1nn(-c2ccc(C(=N)N)cc2)c(=O)n1-c1ccc(CCC(=O)O)cc1` [1(140), 2-(4-amidino-phenyl)-4-[4-(2-carboxy-ethyl)-phenyl]-5-ethyl-4H-1,2,4-triazol-3-one] the same measures were 21 nM and 30 nM.
The corresponding values for `NCc1ccc(N2CCN(c3ccc(OCC(=O)O)cc3)C2=O)cc1` [1(141), 1-(4-aminomethyl-phenyl)-3-(4-carboxymethyloxyphenyl)-imidazolidin-2-one] are 310 nM and 630 nM.
On to `N=C(N)c1ccc(-c2ccc(-n3c(=O)n(CCC(=O)O)c4cccnc43)cc2)cc1` [1(143), 3-(4'-amidino-4-biphenylyl)-1-(2-carboxy-ethyl)-3H-imidazo[4,5-b]pyridin-2-one], for which the IC50 in the test on Human Thrombocytes was greater than 10000 nM. For the same compound, the EC50 in test [1] amounted to 22000 nM.
The corresponding values for `N=C(N)c1ccc(-n2ncn(-c3ccc(CCC(=O)O)cc3)c2=O)cc1` [1(145), 2-(4-amidino-phenyl)-4-[4-(2-carboxy-ethyl)-phenyl]-4H-1,2,4-triazol-3-one] are 7.7 nM and 50 nM.
In the case of `N=C(N)c1ccc(-n2cnn(-c3ccc(CCC(=O)O)cc3)c2=O)cc1` [1(146), 4-(4-amidino-phenyl)-2-[4-(2-carboxy-ethyl)-phenyl]-4H-1,2,4-triazol-3-one], the IC50 with Human Thrombocytes is 6.5 nM. Besides, the EC50 in test [1] amounted to 50 nM.
The corresponding values for `N=C(N)c1ccc(-n2ccn(-c3ccc(C=CC(=O)O)cc3)c2=O)cc1` [1(147), 1-(4-amidino-phenyl)-3-[4-(2-carboxy-ethenyl)-phenyl]-3H-imidazol-2-one] are 27 nM and 160 nM.
Turning to `N=C(N)c1ccc(-n2ccn(-c3ccc(CC(N)C(=O)O)cc3)c2=O)cc1` (centres unmarked) [1(148), 1-(4-amidino-phenyl)-3-[4-(2-amino-2-carboxy-ethyl)-phenyl]-3H-imidazol-2-one], in the test on Human Thrombocytes, the IC50 came to 25 nM. Also, the EC50 in test [1] was 110 nM.
For `NCc1ccc(N2CCN(c3ccc(CC(N)C(=O)O)cc3)C2=O)cc1` (centres unmarked) [1(149), 1-[4-(2-amino-2-carboxy-ethyl)-phenyl]-3-(4-aminomethyl-phenyl)-imidazolidin-2-one], the IC50 in the test on Human Thrombocytes was found to be 470 nM. In addition, the EC50 in test [1] was 1300 nM.
The corresponding values for `N=C(N)c1ccc(-n2ccn(-c3ccc(CC(C(=O)O)N(Cc4ccccc4)Cc4ccccc4)cc3)c2=O)cc1` (centres unmarked) [1(150), 1-(4-amidino-phenyl)-3-[4-(2-carboxy-2-dibenzylamino-ethyl)-phenyl]-3H-imidazol-2-one] are 370 nM and 9900 nM.
For the compound `CC(N)c1ccc(N2CCN(c3ccc(CCC(=O)O)cc3)C2=O)cc1` (centres unmarked) [1(153), 1-[4-(1-amino-ethyl)-phenyl]-3-[4-(2-carboxy-ethyl)-phenyl]-imidazolidin-2-one], the IC50 in the test on Human Thrombocytes was 150 nM. For the same compound, the EC50 in test [1] turned out to be 380 nM.
For `NC1CCc2cc(N3CCN(c4ccc(CCC(=O)O)cc4)C3=O)ccc21` (centres unmarked) [1(154), 1-(1-amino-5-indanyl)-3-[4-(2-carboxy-ethyl)-phenyl] -imidazolidin-2-one] the same measures were 28 nM and 310 nM.
The corresponding values for `Cc1cc(CN)ccc1N1CCN(c2ccc(CCC(=O)O)cc2)C1=O` [1(156), 1-(4-aminomethyl-2-methyl-phenyl)-3-[4-(2-carboxy-ethyl)-phenyl]-imidazolidin-2-one] are 3600 nM and 4100 nM.
Regarding `CCOC(=O)CCN1C(=O)CN(c2ccc(-c3ccc(C(=N)N)cc3)cc2)C1=O` [2(2), 1-(4'-amidino-4-biphenylyl)-3-(2-ethoxycarbonyl-ethyl)-imidazolidin-2,4-dione hydrochloride], the IC50 in the test on Human Thrombocytes amounted to 25000 nM. In test [1], the EC50 is 630 nM.
For `CCOC(=O)CCn1ccn(-c2ccc(-c3ccc(C(=N)N)cc3)cc2)c1=O` [2(3), 1-(4'-amidino-4-biphenylyl)-3-(2-ethoxycarbonyl-ethyl)-3H-imidazol-2-one h ydrochloride] the same measures were 18000 nM and 3100 nM.
Regarding `CCOC(=O)CCN1CCCN(c2ccc(-c3ccc(C(=N)N)cc3)cc2)C1=O` [2(4), 1-(4'-amidino-4-biphenylyl)-3-(2-ethoxycarbonyl-ethyl)-3,4,5,6-tetrahydro-1H-pyrimidin-2-one hydrochloride], the IC50 in the test on Human Thrombocytes is 15000 nM. In test [1], the EC50 stood at 42000 nM.
On to `COC(=O)CN1CCCN(c2ccc(-c3ccc(C(=N)N)cc3)cc2)C1=O` [2(5), 1-(4'-amidino-4-biphenylyl)-3-methoxycarbonylmethyl-3,4,5,6-tetrahydro-1H-pyrimidin-2-one hydrochloride], for which, in the test on Human Thrombocytes, the IC50 amounted to 5600 nM. In test [1], the 50% effective concentration (EC50) is 25000 nM.
For `COC(=O)CCc1ccc(N2CCN(c3ccc(C(=N)N)cc3)C2=O)cc1` [2(6), 1-(4-amidino-phenyl)-3-[4-(2-methoxycarbonyl-ethyl)-phenyl]-imidazolidin-2-one hydrochloride] the same measures were 240 nM and 160 nM.
The corresponding values for `COC(=O)CCN1CCN(c2ccc(-c3ccc(C(=N)N)cc3)cc2)S1(=O)=O` [2(20), 2-(4'-amidino-4-biphenylyl)-5-(2-methoxycarbonyl-ethyl)-3,4-dihydro-2H,5H-1,2,5-thiadiazole-1,1-dioxide hydrochloride] are 5700 nM and 690 nM.
For `COC(=O)CCN1CCN(c2ccc(-c3ccc(C(=N)N)cc3)nn2)C1=O` [2(27), 1-[6-(4-amidino-phenyl)-3-pyridazinyl]-3-(2-methoxycarbonyl-ethyl)-imidazolidin-2-one hydrochloride], the IC50 in the test with Human Thrombocytes was determined as 2500 nM. Besides, the concentration giving a half-maximal response (EC50) in test [1] worked out at 490 nM.
The corresponding values for `COC(=O)CCc1ccc(N2CCN(c3ccc(C(=N)N)cc3C)C2=O)cc1` [2(34), 1-(4-amidino-2-methyl-phenyl)-3-[4-(2-methoxycarbonyl-ethyl)-phenyl]-imidazolidin-2-one hydrochloride] are 7400 nM and 350 nM.
On to `COC(=O)CCC1CCC(N2CCN(c3ccc(C(=N)N)cc3)C2=O)CC1` (centres unmarked) [2(43), 1-(4-amidino-phenyl)-3-[4-(2-methoxycarbonyl-ethyl)-cyclohexyl]-imidazolidin-2-one hydrochloride], for which the IC50 in the test on Human Thrombocytes stood at 420 nM. In addition, in test [1], the EC50 was found to be 100 nM.
The corresponding values for `COC(=O)CC(C)(C)c1ccc(N2CCN(c3ccc(C(=N)N)cc3)C2=O)cc1` [2(47), 1-(4-amidino-phenyl)-3-[4-(3-methoxycarbonyl-2-methyl-2-propyl)-phenyl]-imidazolidin-2-one hydrochloride] are 32000 nM and greater than 100000 nM.
Take `COC(=O)c1ccc(CCN2CCN(c3ccc(C(=N)N)cc3)C2=O)cc1` [2(48), 1-(4-amidino-phenyl)-3-[2-(4-methoxycarbonyl-phenyl)-ethyl]-imidazolidin-2-one]: in the test with Human Thrombocytes, the IC50 came out at 22000 nM. Further, the 50% effective concentration (EC50) in test [1] was greater than 100000 nM.
